The values that follow come from ChEMBL document CHEMBL1150908, “Mollenines A and B: new dioxomorpholines from the ascostromata of Eupenicillium molle” (1998).

One assay concerns Bacillus subtilis. Briefly: Antimicrobial activity against Bacillus subtilis at 200 ug/disk. The class given is functional, organism-based.
A short description of assay [1]: Cytotoxicity against human NCI60 cells. The class given is functional.

Calls of active or inactive are those of the source. The rule behind the calls is not given here.

Turning to `CC(C)=CC[C@@]12C[C@@H]3C(=O)O[C@H](CC(C)C)C(=O)N3[C@@H]1Nc1ccccc12` [MOLLENINE A], the outcome with Bacillus subtilis was Active. This molecule also came in with a GI50 in assay [1] of 31 µM.

The term GI50 denotes the concentration at which growth is held to half of that of the control.
